# Measurements published in ChEMBL document CHEMBL1148029, “Synthesis and radiopharmacological characterization of 2beta-carbo-2'-[18F]fluoroethoxy-3beta-(4-bromo-phenyl)tropane ([18F]MCL-322) as a PET radiotracer for imaging the dopamine transporter (DAT)” (Bioorg Med Chem, 2007).
# What was measured:
# Muscle tissue [1] = experiment: Biodistribution in Wistar rat muscle at 300 uCi, iv after 5 mins; format: ADME, organism-based; conditions: in vivo
# [2] = Biodistribution in Wistar rat brown fat at 300 uCi, iv after 60 mins; format: ADME, organism-based, Brown adipose tissue; conditions: in vivo, 1 h
# Plasma [3] = experiment: Metabolic stability in Wistar rat plasma assessed as polar metabolite level at 1 mCi, iv after 60 mins; format: ADME, organism-based; conditions: in vivo, 1 h
# Testes [4] = experiment: Biodistribution in Wistar rat testes at 300 uCi, iv after 120 mins; format: ADME, organism-based, Testis; conditions: in vivo, 2 h
# Cerebellum [5] = experiment: Biodistribution in Wistar rat cerebellum at 300 uCi, iv after 240 mins; format: ADME, organism-based; conditions: in vivo, 4 h
# Blood [6] = experiment: Biodistribution in Wistar rat blood at 300 uCi, iv after 20 mins; format: ADME, organism-based; conditions: in vivo
# Thymus [7] = experiment: Biodistribution in Wistar rat thymus at 300 uCi, iv after 20 mins; format: ADME, organism-based; conditions: in vivo
# Hippocampus [8] = experiment: Biodistribution in Wistar rat hippocampus at 300 uCi, iv after 60 mins in presence of GBR-12909; format: ADME, organism-based; conditions: in vivo, 1 h
# Kidney [9] = experiment: Biodistribution in Wistar rat kidney at 300 uCi, iv after 5 mins; format: ADME, organism-based; conditions: in vivo
# Spleen [10] = experiment: Biodistribution in Wistar rat spleen at 300 uCi, iv after 120 mins; format: ADME, organism-based; conditions: in vivo, 2 h
# Cortex [11] = experiment: Biodistribution in Wistar rat cortex at 300 uCi, iv after 240 mins; format: ADME, organism-based; conditions: in vivo, 4 h
# [12] = Biodistribution in Wistar rat brown fat at 300 uCi, iv after 240 mins; format: ADME, organism-based, Brown adipose tissue; conditions: in vivo, 4 h
# Blood [13] = experiment: Biodistribution in Wistar rat blood at 300 uCi, iv after 5 mins; format: ADME, organism-based; conditions: in vivo
# Cortex [14] = experiment: Biodistribution in Wistar rat cortex at 300 uCi, iv after 60 mins in presence of nisoxetine; format: ADME, organism-based; conditions: in vivo, 1 h
# Spleen [15] = experiment: Biodistribution in Wistar rat spleen at 300 uCi, iv after 5 mins; format: ADME, organism-based; conditions: in vivo
# [16] = Biodistribution in Wistar rat hair and skin at 300 uCi, iv after 240 mins; format: ADME, organism-based; conditions: in vivo, 4 h
# Femur [17] = experiment: Biodistribution in Wistar rat femur at 300 uCi, iv after 120 mins; format: ADME, organism-based; conditions: in vivo, 2 h
# Heart [18] = experiment: Biodistribution in Wistar rat heart at 300 uCi, iv after 5 mins; format: ADME, organism-based; conditions: in vivo
# Striatum [19] = experiment: Biodistribution in Wistar rat striatum at 300 uCi, iv after 5 mins; format: ADME, organism-based; conditions: in vivo
# Blood [20] = experiment: Biodistribution in Wistar rat blood at 300 uCi, iv after 60 mins in presence of citalopram; format: ADME, organism-based; conditions: in vivo, 1 h
# Plasma [21] = experiment: Metabolic stability in Wistar rat plasma assessed as polar metabolite level at 1 mCi, iv after 30 mins; format: ADME, organism-based; conditions: in vivo, 0.5 h
# Liver = experiment: Biodistribution in Wistar rat liver at 300 uCi, iv after 120 mins; format: ADME, organism-based; conditions: in vivo, 2 h
# Striatum [22] = experiment: Biodistribution in Wistar rat striatum at 300 uCi, iv after 60 mins in presence of citalopram; format: ADME, organism-based; conditions: in vivo, 1 h
# [23] = Biodistribution in Wistar rat hair and skin at 300 uCi, iv after 5 mins; format: ADME, organism-based; conditions: in vivo
# Heart [24] = experiment: Biodistribution in Wistar rat heart at 300 uCi, iv after 240 mins; format: ADME, organism-based; conditions: in vivo, 4 h
# Thymus [25] = experiment: Biodistribution in Wistar rat thymus at 300 uCi, iv after 60 mins; format: ADME, organism-based; conditions: in vivo, 1 h
# Lung [26] = experiment: Biodistribution in Wistar rat lung at 300 uCi, iv after 240 mins; format: ADME, organism-based; conditions: in vivo, 4 h
# Striatum [27] = experiment: Biodistribution in Wistar rat striatum at 300 uCi, iv after 60 mins in presence of GBR-12909; format: ADME, organism-based; conditions: in vivo, 1 h
# Hippocampus [28] = experiment: Biodistribution in Wistar rat hippocampus at 300 uCi, iv after 60 mins in presence of citalopram; format: ADME, organism-based; conditions: in vivo, 1 h
# Femur [29] = experiment: Biodistribution in Wistar rat femur at 300 uCi, iv after 240 mins; format: ADME, organism-based; conditions: in vivo, 4 h
# Blood [30] = experiment: Biodistribution in Wistar rat blood at 300 uCi, iv after 60 mins; format: ADME, organism-based; conditions: in vivo, 1 h
# [31] = Biodistribution in Wistar rat fat at 300 uCi, iv after 20 mins; format: ADME, organism-based, Adipose tissue; conditions: in vivo
# Plasma [32] = experiment: Metabolic stability in Wistar rat plasma assessed as polar metabolite level at 1 mCi, iv after 240 mins; format: ADME, organism-based; conditions: in vivo, 4 h
# Brain [33] = experiment: Biodistribution in Wistar rat rest of brain at 300 uCi, iv after 60 mins in presence of GBR-12909; format: ADME, organism-based; conditions: in vivo, 1 h
# Muscle tissue [34] = experiment: Biodistribution in Wistar rat muscle at 300 uCi, iv after 20 mins; format: ADME, organism-based; conditions: in vivo
# Cortex [35] = experiment: Biodistribution in Wistar rat cortex at 300 uCi, iv after 120 mins; format: ADME, organism-based; conditions: in vivo, 2 h
# Hippocampus [36] = experiment: Biodistribution in Wistar rat hippocampus at 300 uCi, iv after 5 mins; format: ADME, organism-based; conditions: in vivo
# Cortex [37] = experiment: Biodistribution in Wistar rat cortex at 300 uCi, iv after 60 mins in presence of GBR-12909; format: ADME, organism-based; conditions: in vivo, 1 h
# Blood [38] = experiment: Biodistribution in Wistar rat blood at 300 uCi, iv after 60 mins in presence of nisoxetine; format: ADME, organism-based; conditions: in vivo, 1 h
# Blood [39] = experiment: Biodistribution in Wistar rat blood at 300 uCi, iv after 60 mins in presence of GBR-12909; format: ADME, organism-based; conditions: in vivo, 1 h
# Harderian gland [40] = experiment: Biodistribution in Wistar rat harderian glands at 300 uCi, iv after 60 mins; format: ADME, organism-based; conditions: in vivo, 1 h
# Pancreas [41] = experiment: Biodistribution in Wistar rat pancreas at 300 uCi, iv after 120 mins; format: ADME, organism-based; conditions: in vivo, 2 h
# Lung [42] = experiment: Biodistribution in Wistar rat lung at 300 uCi, iv after 5 mins; format: ADME, organism-based; conditions: in vivo
# [43] = Biodistribution in Wistar rat rest of brain at 300 uCi, iv after 20 mins; format: ADME, organism-based; conditions: in vivo
# [44] = Biodistribution in Wistar rat fat at 300 uCi, iv after 120 mins; format: ADME, organism-based, Adipose tissue; conditions: in vivo, 2 h
# Testes [45] = experiment: Biodistribution in Wistar rat testes at 300 uCi, iv after 240 mins; format: ADME, organism-based, Testis; conditions: in vivo, 4 h
# Femur [46] = experiment: Biodistribution in Wistar rat femur at 300 uCi, iv after 5 mins; format: ADME, organism-based; conditions: in vivo
# Cerebellum [47] = experiment: Biodistribution in Wistar rat cerebellum at 300 uCi, iv after 60 mins in presence of nisoxetine; format: ADME, organism-based; conditions: in vivo, 1 h
# Pancreas [48] = experiment: Biodistribution in Wistar rat pancreas at 300 uCi, iv after 60 mins; format: ADME, organism-based; conditions: in vivo, 1 h
# Cerebellum [49] = experiment: Biodistribution in Wistar rat cerebellum at 300 uCi, iv after 120 mins; format: ADME, organism-based; conditions: in vivo, 2 h
# Femur [50] = experiment: Biodistribution in Wistar rat femur at 300 uCi, iv after 60 mins; format: ADME, organism-based; conditions: in vivo, 1 h
# Cortex [51] = experiment: Biodistribution in Wistar rat cortex at 300 uCi, iv after 60 mins; format: ADME, organism-based; conditions: in vivo, 1 h
# Kidney [52] = experiment: Biodistribution in Wistar rat kidney at 300 uCi, iv after 240 mins; format: ADME, organism-based; conditions: in vivo, 4 h
# Brain [53] = experiment: Biodistribution in Wistar rat rest of brain at 300 uCi, iv after 60 mins in presence of citalopram; format: ADME, organism-based; conditions: in vivo, 1 h
# [54] = Biodistribution in Wistar rat brown fat at 300 uCi, iv after 120 mins; format: ADME, organism-based, Brown adipose tissue; conditions: in vivo, 2 h
# Testes [55] = experiment: Biodistribution in Wistar rat testes at 300 uCi, iv after 5 mins; format: ADME, organism-based, Testis; conditions: in vivo
# Heart [56] = experiment: Biodistribution in Wistar rat heart at 300 uCi, iv after 20 mins; format: ADME, organism-based; conditions: in vivo
# Striatum [57] = experiment: Biodistribution in Wistar rat striatum at 300 uCi, iv after 120 mins; format: ADME, organism-based; conditions: in vivo, 2 h
# Thymus [58] = experiment: Biodistribution in Wistar rat thymus at 300 uCi, iv after 5 mins; format: ADME, organism-based; conditions: in vivo
# Harderian gland [59] = experiment: Biodistribution in Wistar rat harderian glands at 300 uCi, iv after 240 mins; format: ADME, organism-based; conditions: in vivo, 4 h
smiles,measurement,setting,value
CN1C2CCC1C(C(=O)OCC[18F])C(c1ccc(Br)cc1)C2 (stereo not given),Drug uptake,Muscle tissue [1],0.42 % ID/g
same,Drug uptake,[2],0.39 % ID/g
same,Stability,Plasma [3],85%
same,Drug uptake,Testes [4],0.39 % ID/g
same,Drug uptake,Cerebellum [5],0.09 % ID/g
same,Drug uptake,Blood [6],0.07 % ID/g
same,Drug uptake,Thymus [7],0.82 % ID/g
same,Drug uptake,Hippocampus [8],1.06 % ID/g
same,Drug uptake,Kidney [9],4.64 % ID/g
same,Drug uptake,Spleen [10],0.29 % ID/g
same,Drug uptake,Cortex [11],0.14 % ID/g
same,Drug uptake,[12],0.08 % ID/g
same,Drug uptake,Blood [13],0.16 % ID/g
same,Drug uptake,Cortex [14],0.96 % ID/g
same,Drug uptake,Spleen [15],1.51 % ID/g
same,Drug uptake,[16],0.08 % ID/g
same,Drug uptake,Femur [17],0.1 % ID/g
same,Drug uptake,Heart [18],1.09 % ID/g
same,Drug uptake,Striatum [19],3.23 % ID/g
same,Drug uptake,Blood [20],0.052 % ID/g
same,Stability,Plasma [21],76%
same,Drug uptake,Liver,15.7 % ID/g
same,Drug uptake,Striatum [22],6.43 % ID/g
same,Drug uptake,[23],0.47 % ID/g
same,Drug uptake,Heart [24],0.07 % ID/g
same,Drug uptake,Thymus [25],0.41 % ID/g
same,Drug uptake,Lung [26],0.27 % ID/g
same,Drug uptake,Striatum [27],1.51 % ID/g
same,Drug uptake,Hippocampus [28],1.36 % ID/g
same,Drug uptake,Femur [29],0.07 % ID/g
same,Drug uptake,Blood [30],0.025 % ID/g
same,Drug uptake,[31],0.48 % ID/g
same,Stability,Plasma [32],> 98%
same,Drug uptake,Brain [33],1.07 % ID/g
same,Drug uptake,Muscle tissue [34],0.33 % ID/g
same,Drug uptake,Cortex [35],0.45 % ID/g
same,Drug uptake,Hippocampus [36],2.37 % ID/g
same,Drug uptake,Cortex [37],0.94 % ID/g
same,Drug uptake,Blood [38],0.04 % ID/g
same,Drug uptake,Blood [39],0.04 % ID/g
same,Drug uptake,Harderian gland [40],2.37 % ID/g
same,Drug uptake,Pancreas [41],0.29 % ID/g
same,Drug uptake,Lung [42],6.53 % ID/g
same,Drug uptake,[43],2.06 % ID/g
same,Drug uptake,[44],0.16 % ID/g
same,Drug uptake,Testes [45],0.17 % ID/g
same,Drug uptake,Femur [46],0.59 % ID/g
same,Drug uptake,Cerebellum [47],0.63 % ID/g
same,Drug uptake,Pancreas [48],0.54 % ID/g
same,Drug uptake,Cerebellum [49],0.24 % ID/g
same,Drug uptake,Femur [50],0.17 % ID/g
same,Drug uptake,Cortex [51],1 % ID/g
same,Drug uptake,Kidney [52],0.83 % ID/g
same,Drug uptake,Brain [53],1.56 % ID/g
same,Drug uptake,[54],0.21 % ID/g
same,Drug uptake,Testes [55],0.33 % ID/g
same,Drug uptake,Heart [56],0.48 % ID/g
same,Drug uptake,Striatum [57],0.39 % ID/g
same,Drug uptake,Thymus [58],0.89 % ID/g
same,Drug uptake,Harderian gland [59],0.93 % ID/g
